In article PMC6748449, “HupA, the main undecaprenyl pyrophosphate and phosphatidylglycerol phosphate phosphatase in Helicobacter pylori is essential for colonization of the stomach” (PLoS Pathogens, 2019):

How the values were obtained:
LpxE (HP0021) = LpxE (HP0021) (Helicobacter pylori, UniProt O24866); experiment: phosphate release, malachite green; assay type: biochemical; conditions: 50 uM substrate, 0.2% DDM, pH 7.4, 37 °C
LpxF (HP1580) = biological target: T1, LpxF (HP1580) (Helicobacter pylori, UniProt O26100); experiment: phosphate release, malachite green; assay type: biochemical; conditions: 50 uM substrate, 0.2% DDM, pH 7.4, 37 °C; very low activity
T1 construct: gene HP_1580
T1 sequence (O26100 entry or part of it): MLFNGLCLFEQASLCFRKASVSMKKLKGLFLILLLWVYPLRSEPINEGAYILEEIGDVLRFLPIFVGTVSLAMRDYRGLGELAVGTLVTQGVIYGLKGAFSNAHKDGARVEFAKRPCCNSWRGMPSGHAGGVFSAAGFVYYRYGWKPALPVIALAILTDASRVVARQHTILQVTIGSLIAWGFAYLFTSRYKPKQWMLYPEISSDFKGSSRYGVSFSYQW

LpxE (HP0021), sequence (O24866 whole entry): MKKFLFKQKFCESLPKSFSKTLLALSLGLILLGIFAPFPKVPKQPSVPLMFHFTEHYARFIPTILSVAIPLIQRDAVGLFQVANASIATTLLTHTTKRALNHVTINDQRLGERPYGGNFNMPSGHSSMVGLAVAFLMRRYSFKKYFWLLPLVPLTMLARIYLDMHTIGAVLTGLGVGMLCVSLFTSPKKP

Question: What does the source list for `CC(C)=CCC/C(C)=C/CC/C(C)=C/COP(=O)(O)OP(=O)(O)O` [C15-PP]?
Answer: phosphate release, malachite green (LpxE (HP0021)): LpxE had similar substrate specificity as HupA, except for C5-PP; phosphate release, malachite green (LpxF (HP1580)): LpxF only showed very low activity towards C15-PP and PGP
